# Measurements reported in patent publication US7728012B2, “Carboxamide compounds and their use as calpain inhibitors” (Abbott GmbH & Co. KG, priority 2006, dated 2010).
# Columns and labels:
# Assay type in all cases: biochemical
# [1] = target: T1, cathepsin K activated from recombinant human procathepsin K (Homo sapiens, UniProt P43235); experiment: Cathepsin K kinetic fluorescence enzyme inhibition assay; details: selectivity ratio versus calpain I
# T1 construct: purchased Calbiochem 342001; host or cells: E. coli
# T1 sequence (P43235 115-329): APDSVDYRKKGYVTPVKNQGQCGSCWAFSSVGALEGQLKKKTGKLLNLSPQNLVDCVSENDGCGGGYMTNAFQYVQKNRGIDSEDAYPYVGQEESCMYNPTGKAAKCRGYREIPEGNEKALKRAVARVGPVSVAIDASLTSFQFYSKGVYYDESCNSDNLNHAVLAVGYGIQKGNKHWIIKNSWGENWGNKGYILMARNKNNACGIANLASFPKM
# [2] = target: T2, cathepsin B isolated from human liver (Homo sapiens, UniProt P07858); experiment: Cathepsin B kinetic fluorescence enzyme inhibition assay; details: selectivity ratio versus calpain I
# T2 construct: cathepsin B—isolated from human liver; purchased Calbiochem 219362; host or cells: human liver (tissue isolate)
# Procedure, shortened: (§1)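 Inhibition is measured at room temperature in cysteine-containing MES buffer, pH 6.0, by continuous fluorescence at 460 nm. Cathepsin S (0.5 nM) uses 20 μM Z-Val-Val-Arg-AMC; L (1 nM) and B (0.25 nM) use Z-Phe-Arg-AMC at 2 and 100 μM respectively.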
# [3] = target: T3, calpain-I isolated from human erythrocytes (Homo sapiens, UniProt P07384); experiment: Calpain I kinetic fluorescence enzyme inhibition assay; details: apparent Ki from IC50 by Cheng-Prussoff; average of 2 to 4 dose-effect plots
# T3 construct: calpain-I—isolated from human erythrocytes; purchased Calbiochem 208713; host or cells: human erythrocytes (tissue isolate)
# T3 sequence (P07384 1-714): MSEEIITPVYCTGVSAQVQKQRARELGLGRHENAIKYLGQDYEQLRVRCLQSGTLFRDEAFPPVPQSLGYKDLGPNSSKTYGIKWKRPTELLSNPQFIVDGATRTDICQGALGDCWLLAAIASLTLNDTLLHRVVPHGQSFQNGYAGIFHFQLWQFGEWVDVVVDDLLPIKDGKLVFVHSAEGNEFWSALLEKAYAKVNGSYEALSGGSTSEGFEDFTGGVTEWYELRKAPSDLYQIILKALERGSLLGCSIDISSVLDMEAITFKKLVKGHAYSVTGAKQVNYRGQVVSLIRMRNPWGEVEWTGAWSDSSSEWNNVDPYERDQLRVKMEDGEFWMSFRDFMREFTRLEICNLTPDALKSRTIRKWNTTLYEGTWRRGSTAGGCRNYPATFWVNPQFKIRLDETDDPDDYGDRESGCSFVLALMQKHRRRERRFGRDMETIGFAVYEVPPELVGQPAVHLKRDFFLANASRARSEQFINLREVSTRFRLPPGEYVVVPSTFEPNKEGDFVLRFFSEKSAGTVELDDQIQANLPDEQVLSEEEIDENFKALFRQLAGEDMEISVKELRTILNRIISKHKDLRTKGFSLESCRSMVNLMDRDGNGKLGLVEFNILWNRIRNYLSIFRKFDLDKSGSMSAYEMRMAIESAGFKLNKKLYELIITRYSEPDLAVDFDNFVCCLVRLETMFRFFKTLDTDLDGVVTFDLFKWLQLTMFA
# T3 sequence (P04632 1-268 partner): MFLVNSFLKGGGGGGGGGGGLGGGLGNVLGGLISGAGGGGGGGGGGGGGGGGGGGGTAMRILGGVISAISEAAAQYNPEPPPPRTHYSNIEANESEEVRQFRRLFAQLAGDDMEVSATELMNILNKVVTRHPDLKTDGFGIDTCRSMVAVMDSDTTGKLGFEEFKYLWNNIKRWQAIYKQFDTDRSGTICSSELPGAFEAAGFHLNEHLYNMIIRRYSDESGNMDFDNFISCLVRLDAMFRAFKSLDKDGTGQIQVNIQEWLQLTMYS
# [4] = target: T4, recombinant human cathepsin S (Homo sapiens, UniProt P25774); experiment: Cathepsin S kinetic fluorescence enzyme inhibition assay; details: selectivity ratio versus calpain I
# T4 construct: purchased Calbiochem 219343; host or cells: E. coli
# Procedure, shortened: as §1
# [5] = target: T5, cathepsin L isolated from human liver (Homo sapiens, UniProt P07711); experiment: Cathepsin L kinetic fluorescence enzyme inhibition assay; details: selectivity ratio versus calpain I
# T5 construct: cathepsin L—isolated from human liver; purchased Calbiochem 219402; host or cells: human liver (tissue isolate)
# Procedure, shortened: as §1
# T4 sequence (P25774 115-331): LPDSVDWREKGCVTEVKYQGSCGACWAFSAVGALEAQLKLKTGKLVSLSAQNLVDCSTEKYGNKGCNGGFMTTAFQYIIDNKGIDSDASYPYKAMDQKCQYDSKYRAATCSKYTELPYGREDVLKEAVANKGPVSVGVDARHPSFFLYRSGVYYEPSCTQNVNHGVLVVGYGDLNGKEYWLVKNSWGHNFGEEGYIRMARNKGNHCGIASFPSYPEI
# T5 sequence (P07711 114-333): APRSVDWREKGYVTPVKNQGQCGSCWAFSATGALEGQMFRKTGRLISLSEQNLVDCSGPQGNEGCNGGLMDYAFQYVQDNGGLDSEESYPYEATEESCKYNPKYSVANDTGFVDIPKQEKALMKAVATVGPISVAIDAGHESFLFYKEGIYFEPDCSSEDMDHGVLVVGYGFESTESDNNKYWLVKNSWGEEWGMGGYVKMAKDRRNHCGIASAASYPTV
compound,measurement,setting,value
"NC(=O)C(=O)C(Cc1ccccc1)NC(=O)c1cccnc1-n1ccc(-c2ccccc2OC(F)(F)F)n1 (stereo not shown) [Example 124, N-[3-Amino-2,3-dioxo-1-(phenylmethyl)propyl]-2-(3-{2-[(trifluoromethyl)oxy]phenyl}-1H-pyrazol-1-yl)pyridine-3-carboxamide]",Sel cat. K (Ki(cathepsin K)/Ki(calpain) ratio),[1],++ (Ki(cathepsin K)/Ki(calpain) ratio of ≧30)
same,Sel cat. B (Ki(cathepsin B)/Ki(calpain) ratio),[2],++ (Ki(cathepsin B)/Ki(calpain) ratio of ≧30)
same,Ki,[3],≤ 40 nM
same,Sel cat. S (Ki(cathepsin S)/Ki(calpain) ratio),[4],++ (Ki(cathepsin S)/Ki(calpain) ratio of ≧100)
same,Sel cat. L (Ki(cathepsin L)/Ki(calpain) ratio),[5],++ (Ki(cathepsin L)/Ki(calpain) ratio of ≧50)
"COc1cc(F)ccc1-c1ccn(-c2ncccc2C(=O)NC(Cc2ccccc2)C(=O)C(N)=O)n1 (stereo not shown) [Example 125, N-[3-Amino-2,3-dioxo-1-(phenylmethyl)propyl]-2-{3-[4-fluoro-2-(methyloxy)phenyl]-1H-pyrazol-1-yl}pyridine-3-carboxamide]",Sel cat. K (Ki(cathepsin K)/Ki(calpain) ratio),[1],++ (Ki(cathepsin K)/Ki(calpain) ratio of ≧30)
same,Sel cat. B (Ki(cathepsin B)/Ki(calpain) ratio),[2],++ (Ki(cathepsin B)/Ki(calpain) ratio of ≧30)
same,Ki,[3],≤ 40 nM
same,Sel cat. S (Ki(cathepsin S)/Ki(calpain) ratio),[4],++ (Ki(cathepsin S)/Ki(calpain) ratio of ≧100)
same,Sel cat. L (Ki(cathepsin L)/Ki(calpain) ratio),[5],++ (Ki(cathepsin L)/Ki(calpain) ratio of ≧50)
"NC(=O)C(=O)C(Cc1ccc(OCc2ccccc2)cc1)NC(=O)c1cccnc1-n1ccc(-c2ccccc2)n1 (stereo not shown) [Example 127, N-[3-Amino-2,3-dioxo-1-({4-[(phenylmethyl)oxy]phenyl}methyl)propyl]-2-(3-phenyl-1H-pyrazol-1-yl)pyridine-3-carboxamide]",Sel cat. K (Ki(cathepsin K)/Ki(calpain) ratio),[1],++ (Ki(cathepsin K)/Ki(calpain) ratio of ≧30)
same,Sel cat. B (Ki(cathepsin B)/Ki(calpain) ratio),[2],++ (Ki(cathepsin B)/Ki(calpain) ratio of ≧30)
same,Ki,[3],≤ 40 nM
same,Sel cat. S (Ki(cathepsin S)/Ki(calpain) ratio),[4],++ (Ki(cathepsin S)/Ki(calpain) ratio of ≧100)
same,Sel cat. L (Ki(cathepsin L)/Ki(calpain) ratio),[5],++ (Ki(cathepsin L)/Ki(calpain) ratio of ≧50)
"COc1ccc(F)cc1-c1ccn(-c2ncccc2C(=O)NC(Cc2ccccc2)C(=O)C(N)=O)n1 (stereo not shown) [Example 130, N-[3-Amino-2,3-dioxo-1-(phenylmethyl)propyl]-2-{3-[5-fluoro-2-(methyloxy)phenyl]-1H-pyrazol-1-yl}pyridine-3-carboxamide]",Sel cat. K (Ki(cathepsin K)/Ki(calpain) ratio),[1],++ (Ki(cathepsin K)/Ki(calpain) ratio of ≧30)
same,Sel cat. B (Ki(cathepsin B)/Ki(calpain) ratio),[2],++ (Ki(cathepsin B)/Ki(calpain) ratio of ≧30)
same,Ki,[3],≤ 40 nM
same,Sel cat. S (Ki(cathepsin S)/Ki(calpain) ratio),[4],++ (Ki(cathepsin S)/Ki(calpain) ratio of ≧100)
same,Sel cat. L (Ki(cathepsin L)/Ki(calpain) ratio),[5],++ (Ki(cathepsin L)/Ki(calpain) ratio of ≧50)
"COc1ccc(Cl)cc1-c1ccn(-c2ncccc2C(=O)NC(Cc2ccccc2)C(=O)C(N)=O)n1 (stereo not shown) [Example 131, N-[3-Amino-2,3-dioxo-1-(phenylmethyl)propyl]-2-{3-[5-chloro-2-(methyloxy)phenyl]-1H-pyrazol-1-yl}pyridine-3-carboxamide]",Sel cat. K (Ki(cathepsin K)/Ki(calpain) ratio),[1],++ (Ki(cathepsin K)/Ki(calpain) ratio of ≧30)
same,Sel cat. B (Ki(cathepsin B)/Ki(calpain) ratio),[2],++ (Ki(cathepsin B)/Ki(calpain) ratio of ≧30)
same,Ki,[3],≤ 40 nM
same,Sel cat. S (Ki(cathepsin S)/Ki(calpain) ratio),[4],++ (Ki(cathepsin S)/Ki(calpain) ratio of ≧100)
same,Sel cat. L (Ki(cathepsin L)/Ki(calpain) ratio),[5],++ (Ki(cathepsin L)/Ki(calpain) ratio of ≧50)
"NC(=O)C(=O)C(Cc1ccc(OC(F)(F)F)cc1)NC(=O)c1cccnc1-n1ccc(-c2ccc(F)cc2)n1 (stereo not shown) [Example 132, N-[3-Amino-2,3-dioxo-1-({4-[(trifluoromethyl)oxy]phenyl}methyl)propyl]-2-[3-(4-fluorophenyl)-1H-pyrazol-1-yl]pyridine-3-carboxamide]",Sel cat. K (Ki(cathepsin K)/Ki(calpain) ratio),[1],++ (Ki(cathepsin K)/Ki(calpain) ratio of ≧30)
same,Sel cat. B (Ki(cathepsin B)/Ki(calpain) ratio),[2],+ (10≦Ki(cathepsin B)/Ki(calpain)<30)
same,Ki,[3],40 to 100 nM
same,Sel cat. S (Ki(cathepsin S)/Ki(calpain) ratio),[4],++ (Ki(cathepsin S)/Ki(calpain) ratio of ≧100)
same,Sel cat. L (Ki(cathepsin L)/Ki(calpain) ratio),[5],++ (Ki(cathepsin L)/Ki(calpain) ratio of ≧50)
"NC(=O)C(=O)C(Cc1ccc(OC(F)(F)F)cc1)NC(=O)c1cccnc1-n1ccc(-c2ccccc2)n1 (stereo not shown) [Example 133, N-[3-Amino-2,3-dioxo-1-({4-[(trifluoromethyl)oxy]phenyl}methyl)propyl]-2-(3-phenyl-1H-pyrazol-1-yl)pyridine-3-carboxamide]",Sel cat. K (Ki(cathepsin K)/Ki(calpain) ratio),[1],++ (Ki(cathepsin K)/Ki(calpain) ratio of ≧30)
same,Sel cat. B (Ki(cathepsin B)/Ki(calpain) ratio),[2],++ (Ki(cathepsin B)/Ki(calpain) ratio of ≧30)
same,Ki,[3],40 to 100 nM
same,Sel cat. S (Ki(cathepsin S)/Ki(calpain) ratio),[4],++ (Ki(cathepsin S)/Ki(calpain) ratio of ≧100)
same,Sel cat. L (Ki(cathepsin L)/Ki(calpain) ratio),[5],++ (Ki(cathepsin L)/Ki(calpain) ratio of ≧50)
"COc1ccc(CC(NC(=O)c2cccnc2-n2ccc(-c3cccc4ccccc34)n2)C(=O)C(N)=O)cc1 (stereo not shown) [Example 135, N-(3-Amino-1-{[4-(methyloxy)phenyl]methyl}-2,3-dioxopropyl)-2-(3-naphthalen-1-yl-1H-pyrazol-1-yl)pyridine-3-carboxamide]",Sel cat. K (Ki(cathepsin K)/Ki(calpain) ratio),[1],++ (Ki(cathepsin K)/Ki(calpain) ratio of ≧30)
same,Sel cat. B (Ki(cathepsin B)/Ki(calpain) ratio),[2],++ (Ki(cathepsin B)/Ki(calpain) ratio of ≧30)
same,Ki,[3],≤ 40 nM
same,Sel cat. S (Ki(cathepsin S)/Ki(calpain) ratio),[4],++ (Ki(cathepsin S)/Ki(calpain) ratio of ≧100)
same,Sel cat. L (Ki(cathepsin L)/Ki(calpain) ratio),[5],++ (Ki(cathepsin L)/Ki(calpain) ratio of ≧50)
"COc1ccc(CC(NC(=O)c2cccnc2-n2ccc(-c3ccc(F)cc3OC)n2)C(=O)C(N)=O)cc1 (stereo not shown) [Example 136, N-(3-Amino-1-{[4-(methyloxy)phenyl]methyl}-2,3-dioxopropyl)-2-{3-[4-fluoro-2-(methyloxy)phenyl]-1H-pyrazol-1-yl}pyridine-3-carboxamide]",Sel cat. K (Ki(cathepsin K)/Ki(calpain) ratio),[1],++ (Ki(cathepsin K)/Ki(calpain) ratio of ≧30)
same,Sel cat. B (Ki(cathepsin B)/Ki(calpain) ratio),[2],++ (Ki(cathepsin B)/Ki(calpain) ratio of ≧30)
same,Ki,[3],≤ 40 nM
same,Sel cat. S (Ki(cathepsin S)/Ki(calpain) ratio),[4],++ (Ki(cathepsin S)/Ki(calpain) ratio of ≧100)
same,Sel cat. L (Ki(cathepsin L)/Ki(calpain) ratio),[5],++ (Ki(cathepsin L)/Ki(calpain) ratio of ≧50)
"COc1ccc(CC(NC(=O)c2cccnc2-n2ccc(-c3ccc4c(c3)OC(F)(F)O4)n2)C(=O)C(N)=O)cc1 (stereo not shown) [Example 137, N-(3-Amino-1-{[4-(methyloxy)phenyl]methyl}-2,3-dioxopropyl)-2-[3-(2,2-difluoro-1,3-benzodioxol-5-yl)-1H-pyrazol-1-yl]pyridine-3-carboxamide]",Sel cat. K (Ki(cathepsin K)/Ki(calpain) ratio),[1],+ (10≦Ki(cathepsin K)/Ki(calpain)<30)
same,Sel cat. B (Ki(cathepsin B)/Ki(calpain) ratio),[2],+ (10≦Ki(cathepsin B)/Ki(calpain)<30)
same,Ki,[3],40 to 100 nM
same,Sel cat. S (Ki(cathepsin S)/Ki(calpain) ratio),[4],++ (Ki(cathepsin S)/Ki(calpain) ratio of ≧100)
same,Sel cat. L (Ki(cathepsin L)/Ki(calpain) ratio),[5],++ (Ki(cathepsin L)/Ki(calpain) ratio of ≧50)
"COc1cc(Cl)ccc1-c1ccn(-c2ncccc2C(=O)NC(Cc2ccccc2)C(=O)C(N)=O)n1 (stereo not shown) [Example 139, N-[3-Amino-2,3-dioxo-1-(phenylmethyl)propyl]-2-{3-[4-chloro-2-(methyloxy)phenyl]-1H-pyrazol-1-yl}pyridine-3-carboxamide]",Sel cat. K (Ki(cathepsin K)/Ki(calpain) ratio),[1],++ (Ki(cathepsin K)/Ki(calpain) ratio of ≧30)
same,Sel cat. B (Ki(cathepsin B)/Ki(calpain) ratio),[2],+ (10≦Ki(cathepsin B)/Ki(calpain)<30)
same,Ki,[3],40 to 100 nM
same,Sel cat. S (Ki(cathepsin S)/Ki(calpain) ratio),[4],++ (Ki(cathepsin S)/Ki(calpain) ratio of ≧100)
same,Sel cat. L (Ki(cathepsin L)/Ki(calpain) ratio),[5],++ (Ki(cathepsin L)/Ki(calpain) ratio of ≧50)
